Experimental data taken from patent publication US9505740B2, “Cyclic amine derivative and pharmaceutical use thereof” (Toray Industries, Inc., priority 2013, dated 2016).
Structures can show the parent of a compound that is named as a salt.

System: mouse partial sciatic nerve ligation model
Assay: Mouse partial sciatic nerve ligation model (Seltzer model), von Frey test
Type: in vivo
Settings: Day 7, vs physiological saline group
[1] = intraventricular administration, 10 μg/site, 15, 30 and 60 minutes after administration, p<0.05
[2] = intravenous administration (tail vein), Examples 2, 4: 0.1 to 10 mg/kg, 13: 0.01 to 1 mg/kg, 18, 22: 0.1 and 1 mg/kg, 25, 27, 29, 31, 33, 66, 68, 70: 0.1 mg/kg, pregabalin 1 or 3 mg/kg

Compound | analgesic action, total score in the von Frey test [1] | analgesic action, total score in the von Frey test [2]
CN(C)C1CCN(C(=O)CCc2nccn2CCO)CC1 [Example 12, 1-(4-(dimethylamino)piperidin-1-yl)-3-(1-(2-hydroxyethyl)-1H-imidazol-2-yl)propan-1-one hydrochloride] | statistically significant analgesic action | 
CN1CCN(C2CCN(C(=O)CCc3nccn3CC(=O)O)CC2)CC1.Cl [Example 29, 2-(2-(3-(4-(1-methylpiperazin-4-yl)piperidin-1-yl)-3-oxopropyl)-1H-imidazol-1-yl)acetic acid hydrochloride] |  | statistically significant analgesic action
CN(C)[C@@H]1CCCN(C(=O)CCc2nccn2CC(=O)O)C1.Cl [Example 31, 2-(2-(3-((R)-3-dimethylaminopiperidin-1-yl)-3-oxopropyl)-1H-imidazol-1-yl)acetic acid hydrochloride] |  | statistically significant analgesic action
CC(=O)NC1CCN(C(=O)CCc2nccn2C)CC1.Cl [Example 10, N-(1-(3-(1-methyl-1H-imidazol-2-yl)propanoyl)piperidin-4-yl)acetamide hydrochloride] | statistically significant analgesic action | 
CC(=O)N(C)C1CCN(C(=O)CCc2nccn2C)CC1.Cl [Example 4, N-methyl-N-(1-(3-(1-methyl-1H-imidazol-2-yl)propanoyl)piperidin-4-yl)acetamide hydrochloride] | statistically significant analgesic action | statistically significant analgesic action
CCN(CC)C1CCN(C(=O)CCc2nccn2CC(=O)O)CC1.Cl [Example 22, 2-(2-(3-(4-(diethylamino)piperidin-1-yl)-3-oxopropyl)-1H-imidazol-1-yl)acetic acid hydrochloride] |  | statistically significant analgesic action
CN(C)[C@H]1CCCN(C(=O)CCc2nccn2CCC(=O)O)C1.Cl [Example 68, 3-(2-(3-((S)-3-dimethylaminopiperidin-1-yl)-3-oxopropyl)-1H-imidazol-1-yl)propanoic acid hydrochloride] |  | statistically significant analgesic action
Cl.O=C(O)Cn1ccnc1CCC(=O)N1CCC(N2CCCCC2)CC1 [Example 25, 2-(2-(3-(4-(piperidin-1-yl)piperidin-1-yl)-3-oxopropyl)-1H-imidazol-1-yl)acetic acid hydrochloride] |  | statistically significant analgesic action
CN(C)C1CCN(C(=O)CCc2nccn2CCC(=O)O)CC1 [Example 66, 3-(2-(3-(4-(dimethylamino)piperidin-1-yl)-3-oxopropyl)-1H-imidazol-1-yl)propanoic acid hydrochloride] |  | statistically significant analgesic action
CNC1CCN(C(=O)CCc2nccn2C)CC1 [Example 2, 3-(1-methyl-1H-imidazol-2-yl)-1-(4-(methylamino)piperidin-1-yl)propan-1-one hydrochloride] | statistically significant analgesic action | statistically significant analgesic action
CN(C)[C@H]1CCN(C(=O)CCc2nccn2CCC(=O)O)C1.Cl [Example 70, (S)-3-(2-(3-(3-(dimethylamino)pyrrolidin-1-yl)-3-oxopropyl)-1H-imidazol-1-yl)propanoic acid hydrochloride] |  | statistically significant analgesic action
CN(C)[C@H]1CCN(C(=O)CCc2nccn2CC(=O)O)C1.Cl [Example 33, (S)-2-(2-(3-(3-(dimethylamino)pyrrolidin-1-yl)-3-oxopropyl)-1H-imidazol-1-yl)acetic acid hydrochloride] |  | statistically significant analgesic action
CC(=O)NCCN(C)C1CCN(C(=O)CCc2nccn2C)CC1 [Example 6, N-(2-(methyl(1-(3-(1-methyl-1H-imidazol-2-yl)propanoyl)piperidin-4-yl)amino)ethyl)acetamide hydrochloride] | statistically significant analgesic action | 
CCN(C)C1CCN(C(=O)CCc2nccn2CC(=O)O)CC1.Cl [Example 18, 2-(2-(3-(4-(ethylmethylamino)piperidin-1-yl)-3-oxopropyl)-1H-imidazol-1-yl)acetic acid hydrochloride] |  | statistically significant analgesic action
CN(C)C1CCN(C(=O)CCc2nccn2CCN)CC1 [Example 15, 3-(1-(2-aminoethyl)-1H-imidazol-2-yl)-1-(4-(dimethylamino)piperidin-1-yl)propan-1-one hydrochloride] | statistically significant analgesic action | 
Cl.O=C(O)Cn1ccnc1CCC(=O)N1CCC(N2CCOCC2)CC1 [Example 27, 2-(2-(3-(4-(morpholin-4-yl)piperidin-1-yl)-3-oxopropyl)-1H-imidazol-1-yl)acetic acid hydrochloride] |  | statistically significant analgesic action
